A short description of data set [1]: Acute toxicity, LD50 after single oral administration to mice. To be noted: mouse, in vivo. The text has this:
(§1) As already mentioned earlier, the compounds of formula I and their pharmaceutically acceptable acid addition salts have valuable pharmacodynamic properties. In particular, they have interesting analgesic, anti-depressant and acute inflammation-inhibiting properties. […] In the following Table there are given the results determined in these tests for some representative members of the class of compound defined by general formula I. Moreover, the Table contains data concerning the acute toxicity of these compounds (LD50 after single oral administration to mice).

The nature of data set [2]: Writhing Test on the mouse (analgesic activity). It counts as in vivo. The note with it: po.
Source text: as §1

The test system of the next data set is serotonin-uptake. Kind of data set: Serotonin-uptake Test (antidepressant activity; M. J. Kuhar et al.). Format: biochemical.
Source text: as §1

Structures can show the parent of a compound that is named as a salt.

One may read the LD50 as the dose expected to kill half of the subjects tested. Higher therefore signals lower toxicity. In general, ED50 refers to the dose that gives a 50% effect, or the effect in half of the subjects. As a reminder, the IC50 is the concentration that gives 50% inhibition.

`CN(C)C[C@@H](c1ccc(Cl)c(Cl)c1)[C@@H]1CCCC[C@@H]1O` (relative stereo) [rac-(1S*)-cis-2-/(R*)-3,4-dichloro-α-[(dimethylamino)methyl]benzyl/cyclohexanol hydrochloride]: in data set [1], the LD50 lay within 62.6 to 125 mg/kg. This molecule also had an ED50 in data set [2] of 9.7 mg/kg. Besides, the IC50 in the data set with serotonin-uptake turned out to be 21 nM.

In data set [1], `CN(C)C[C@@H](c1ccc(Cl)cc1)[C@@H]1CCCC[C@@H]1O` (relative stereo) [rac-(1S*)-cis-2-/(R*)-4-chloro-α-[(dimethylamino)methyl]benzyl/cyclohexanol hydrochloride] registered an LD50 of 312 to 625 mg/kg. Further, the 50% effect level in data set [2] (ED50) was put at a dose of 18 mg/kg. In addition, inhibition with serotonin-uptake was half-maximal at 88 nM (IC50).

As for `COc1ccc([C@H](CN(C)C)[C@@H]2CCCC[C@@H]2O)cc1` (relative stereo) [rac-(1S*)-cis-2-/(R*)-4-methoxy-α-[(dimethylamino)methyl]benzyl/cyclohexanol hydrochloride], the LD50 in data set [1] lay in the range of 250 to 500 mg/kg. The same molecule displayed a 50% effective dose (ED50) in data set [2] of 23 mg/kg. Also, the IC50 with serotonin-uptake was 120 nM.

In data set [1], `COc1ccc([C@H](CN(C)C)[C@@H]2CCCC[C@@H]2O)cc1OC` (relative stereo) [rac-(1S*)-cis-2-/(R*)-α-[(dimethylamino)methyl]-3,4-dimethoxybenzyl/cyclohexanol hydrochloride] displayed a 50% lethal dose (LD50) of 500 to 1000 mg/kg. Moreover, in data set [2], the 50% effect level (ED50) was put at a dose of 10 mg/kg. In the data set with serotonin-uptake, this molecule came in with an IC50 of 100 nM.

Molecule `CN(C)C[C@@H](c1ccc(O)cc1)[C@@H]1CCCC[C@@H]1O` (relative stereo) [rac-(1S*)-cis-2-/(R*)-α-[(dimethylamino)methyl]-4-hydroxybenzyl/cyclohexanol] returned a 50% lethal dose (LD50) in data set [1] of 500 to 1000 mg/kg. Further, the 50% effect level in data set [2] (ED50) was put at a dose of 8.4 mg/kg. In the data set on serotonin-uptake, this molecule came in with an IC50 of 180 nM.

The molecule `CN(C)C[C@@H](c1ccc(Cl)cc1)[C@@H]1CCCCC1=O` (relative stereo) [rac-(2S*)-2-/(R*)-4-chloro-α-[(dimethylamino)methyl]benzyl/cyclohexanone hydrochloride] yielded a median lethal dose (LD50) in data set [1] of 156 to 312 mg/kg. Also, the ED50 in data set [2] amounted to 22 mg/kg. In the data set with serotonin-uptake, this molecule gave an IC50 of 240 nM.

The molecule `CN(C)C[C@@H](c1ccc(Cl)cc1)[C@@H]1CCCC[C@@H]1O` [(+)-(1S)-cis-2-/(R)-4-chloro-α-[(dimethylamino)methyl]benzyl/cyclohexanol hydrochloride] came in with an LD50 in data set [1] of 125 to 250 mg/kg. The same molecule showed an ED50 in data set [2] of 14 mg/kg. This molecule showed an IC50 in the data set with serotonin-uptake of 110 nM.

As for `CN(C)C[C@H](c1ccc(Cl)cc1)[C@H]1CCCC[C@H]1O` [(-)-(1R)-cis-2-/(S)-4-chloro-α-[(dimethylamino)methyl]benzyl/cyclohexanol hydrochloride], the LD50 in data set [1] was 125 to 250 mg/kg. In data set [2], this molecule came in with an ED50 of 19 mg/kg. The IC50 in the data set with serotonin-uptake stood at 55 nM.

Values taken from patent US4820734A, “Phenethylamine derivatives” (Hoffmann-La Roche Inc., priority 1983, dated 1989).
